Measured values taken from patent US7410971B2, “1,2-di(cyclic)substituted benzene compounds” (Eisai R&D Management Co., Ltd., priority 2003, dated 2008).

Key:
[1] = system: Jurkat cells; experiment: Jurkat cell adhesion system (adhesion to immobilized human fibronectin, PMA-stimulated); format: cell-based; details: concentration inhibiting by 50% the PMA-stimulated increase in number of adhered Jurkat cells on human fibronectin
Method: Evaluation of Compounds in Jurkat Cell Adhesion System
<Immobilization of Human Fibronectin in 96-Well Plate>
Human fibronectin (Becton Dickinson Biosciences) was diluted with phosphate-buffered saline (hereinafter abbreviated as PBS; Sigma) to 0.1-0.01 μg/ml, and the diluted solution was added to a 96-well plate (Becton Dickinson) at 50μ/well, and allowed to stand overnight at 4° C. On the following day, the supernatant was removed from the plate, and then PBS containing 1% bovine serum albumin (hereinafter abbreviated as BSA; Sigma) was added thereto at 100 μl/well and incubation was performed at 37° C. for 2 hours in a CO2 incubator (Hirasawa).
The supernatant was removed from each plate and Jurkat cells suspended in RPMI-1640 (Sigma) containing 1 mg/ml BSA were added at 80 μl/well for 2.5×10^5 cells/well. The compound diluted to different concentrations with RPMI-1640 containing 1 mg/ml BSA was immediately added at 10 μl/well, and then 100 nM phorbol myristate acetate (hereinafter abbreviated as PMA; Sigma) in RPMI-1640 containing 1 mg/ml BSA was added at 10 μl/well and the plate was incubated in a CO2 incubator at 37° C. for 45-60 minutes. The supernatant was removed from the plate and each well was washed several times with 100 μl/well of RPMI-1640, after which 50 mM citrate buffer (pH 5.0) containing 3.75 mM p-nitrophenol-N-acetyl-β-D-glucosaminide (Sigma) and 0.25% Triton X-100 (Sigma) were added at 60 μl/well, and the mixture was placed in a CO2 incubator and incubated at 37° C. for 45 minutes. After incubation, 50 mM glycine buffer (pH 10.4) containing 5 mM EDTA was added at 90 μl/well, and the absorbance at 405 nm was measured with an EL340 Automated Microplate Reader (BIO-TEK) to determine the adhered cell count. The concentration of each compound which inhibited the increase in the number of adhered cells by the PMA-stimulation by 50% was recorded as the IC50 (μM).

[2] = system: human peripheral blood neutrophils; experiment: Human peripheral blood neutrophil adhesion system (adhesion to immobilized HUVEC, PMA-stimulated); format: cell-based; details: concentration inhibiting by 50% the PMA-stimulated increase in number of adhered BCECF-AM labeled neutrophils on HUVEC immobilized plate
Method: Evaluation of Compounds in Human Peripheral Blood Neutrophil Adhesion System
<Preparation of Human Peripheral Blood Neutrophils>
To a plastic centrifugation tube containing 100 units of heparin sodium (Shimizu Pharmaceutical) was added 25 ml of fresh blood sampled from a healthy human. After adding and mixing therewith 8 ml of physiological saline (Otsuka Pharmaceutical) containing 6% Dextran (Nacalai), the mixture was allowed to stand room temperature for 45 minutes for sedimentation of the erythrocytes. The resultant supernatant was transferred to another plastic centrifugation tube and combined with an equivalent volume of phosphate-buffered saline (hereinafter abbreviated as PBS; Sigma), and then centrifuged at 1600 rpm for 7 minutes at room temperature. The obtained hematocyte fraction was suspended in 4 ml of PBS, and the suspension was superposed on 4 ml of Ficoll-Paque™ PLUS (Amersham Biosciences). The resultant bilayer liquid was centrifuged at 2000 rpm for 30 minutes at room temperature, after which the supernatant was removed and the precipitate was suspended in 10 ml of PBS and centrifuged at 1200 rpm for 7 minutes, and the supernatant was removed. The resulting precipitate was suspended in 0.5 ml of PBS again, and then 10 ml of distilled water (Otsuka Pharmaceutical) was added, 0.5 ml of an aqueous solution containing 3 M NaCl was immediately added to restore isotonicity, the mixture was centrifuged at 1200 rpm for 7 minutes, and the obtained precipitate was suspended in PBS containing 1 mg/ml bovine serum albumin (hereinafter abbreviated as BSA; Sigma) again and stored in ice until being used for the experiment.
<Fluorescent Labeling of Human Peripheral Blood Neutrophils>
The obtained neutrophils were suspended in PBS containing 1 mg/ml BSA at 2×10^7 cells/ml. BCECF-AM (Dojin) was added to a final concentration of 5 μM, and the mixture was incubated at 37° C. for 45 minutes. It was then rinsed twice with PBS containing 1 mg/ml BSA by centrifugation, suspended again in PBS containing 1 mg/ml BSA at 5×10^7 cells/ml, and stored in ice until use.
<Preparation of HUVEC Immobilized Plate>
Human umbilical vein endothelial cells (hereinafter abbreviated as HUVEC) were suspended in MCDB131 medium (Chlorella Industries) containing 10% fetal calf serum and 30 μg/ml endothelial cell growth supplement (Becton Dickinson Bioscience). The suspension was added at 7.5×10^3 cells/well to a 96-well plate (Iwaki) immobilized with type I collagen, and cultured for 3 days in a CO2 incubator (Hirasawa). Upon confirming confluency of the cells, the supernatant was discarded, the plate was rinsed twice with PBS, and then PBS containing 0.1% glutaraldehyde (Kanto Kagaku) was added at 100 μl/well and the HUVECs were immobilized for 5 minutes. The supernatant was discarded and the plate was washed twice with PBS, and then PBS was added at 100 μl/well and the mixture was stored at 4° C. until use.
To 6.5 ml of RPMI-1640 medium (Sigma) containing 1 mg/ml of BSA were added 0.5 ml of a suspension of BCECF-AM labeled neutrophils at 5×10^7/ml stored in ice, which was mixed, and the mixture was added at 80 μl/well to a HUVEC immobilized plate. […] The supernatant was removed from the plate, which was then washed several times with RPMI-1640 at 100 μl/well, and then PBS containing 0.1% NP-40 (Calbiochem) was added thereto at 100 μl/well and the fluorescent intensity was measured with an ARVO™SX 1420 multi label counter (Wallac) to determine the number of adhered cells. […]

[3] = system: colon-infiltrating neutrophils (myeloperoxidase enzyme activity); experiment: Oxazolone-induced colon neutrophil infiltration model; format: in vivo, Balb/c mice; details: Mus musculus, po, 30 mg/kg orally 30 minutes prior to intrarectal oxazolone, colon myeloperoxidase activity 4 hours after, vs oxazolone control group, read-out: Inhibitory rate (%)
Method: Evaluation of Compounds in Oxazolone-Induced Colon Neutrophil Infiltration Model
<Sensitization with Oxazolone>
Five- to six-week-old male Balb/c mice (Charles River Japan) were shaven at the abdomen to an approximately 2 cm square area. A 100% ethanol solution containing 3% 4-ethoxymethylene-2-phenyl-2-oxazolin-5-one (hereinafter referred to as “oxazolone”; Sigma) was applied at 150 μl onto the abdomen of each mouse.
<Preparation of Emulsion Containing Oxazolone>
Distilled water (Otsuka Pharmaceutical) was added in an equivalent volume to 100% peanut oil (Kanto Kagaku) containing 1% oxazolone, and the components were vigorously mixed with a glass syringe (Top Co.), to prepare an emulsion containing 0.5% oxazolone.
<Induction with Oxazolone>
The mice were fasted on the 3rd day after oxazolone sensitization, and were injected with 100 μl of the emulsion containing 0.5% oxazolone prepared in the way described above intrarectally at a site approximately 3 cm from the anus under ether anesthesia on the 4th day.
<Colon-Infiltrating Neutrophil Assay>
Each compound was suspended or dissolved in an aqueous solution containing 0.5% methyl cellulose (Wako), and orally administered at 30 mg/kg 30 minutes prior to the intrarectal injection of oxazolone emulsion. Four hours after the intrarectal injection of oxazolone, mice were sacrificed by cervical dislocation, and colons were extirpated, dissected in the longitudinal direction, washed with physiological saline, and transferred to ice-cooled plastic centrifugation tubes. After adding 1 ml of 50 mM potassium phosphate buffer (hereinafter abbreviated as KPB) (pH 6.0) to the tube, and the tissue were homogenized with PHYSCOTRON (Microtec Nition Co., Ltd.), 2 ml of 50 mM KPB (pH 6.0) was added and the mixture was centrifuged at 3000 rpm, 4° C. for 10 minutes and the supernatant was removed. To the resultant precipitate was added 1 ml of 50 mM KPB (pH 6.0) containing 0.5% hexadecyltrimethyl-ammonium bromide (Sigma), and freeze-thawed 3 to 5 times using liquid nitrogen and hot water, centrifuged at 3000 rpm, 4° C. for 10 minutes to yield a supernatant. The myeloperoxidase enzyme activity in the supernatant was assayed in the following manner. Specifically, to 10 μl of the obtained supernatant was added 200 μl of 50 mM KPB (pH6.0) containing 0.017% o-dianisidine (Sigma) and 0.0005% hydrogen peroxide (Wako), incubated at 37° C., and the change in absorbance at 450 nm was continuously measured for 1 minute using an EL340 Automated Microplate Reader (BIO-TEK) in kinetic mode. The units were the rate of change in absorbance per minute (mO.D./min.). With regard to the effect of each compound, the inhibitory rate (%) with respect to the oxazolone control group, i.e. the oxazolone-injected/compound-free group, was shown in the table 3.

| Structure (SMILES) | IC50 [1] [µM] | IC50 [2] [µM] | inhibition in vivo at 30 mg/kg [3] [%] |
| --- | --- | --- | --- |
| CCCCN1CCN(c2ccc(N3CCC(OC)CC3)cc2C2=CCC(C(C)(C)C)CC2)CC1.Cl (racemic) [Example 7, 1-Butyl-4-[2-(4-t-butylcyclohex-1-enyl)-4-(4-methoxypiperidin-1-yl)phenyl]piperazine hydrochloride] | 2.5 | 9.8 | 37 |
| CCCCN1CCN(c2ccccc2C2CCCCC2)CC1.Cl [Example 14, 1-Butyl-4-(2-cyclohexylphenyl)piperazine hydrochloride] | 4.9 | 19.7 | 64 |
| CCCCN1CCN(c2ccccc2C2CC(C)(C)CC(C)(C)C2)CC1.Cl [Example 8, 1-Butyl-4-[2-(3,3,5,5-tetramethylcyclohexyl)phenyl]piperazine hydrochloride] | 2.2 | 22.5 | 22 |
